Reference: PubChem BioAssay AID2060496 (Molecular Pharmacology Branch, DTP, NCI, 2025)
pIC50: −log10 of the molar value.

Tested on: 276233-004-R-J1-PDC complex spheroid viability
Assay: Anticancer human tumor 276233-004-R-J1-PDC patient-derived colon adenocarcinoma cell line growth inhibition [GQUAD]
Details: for pIC50: curve of first compound; for viability, T/C: stronger effect = lower value; active = viability on the fitted dose curve at most 10% of control; inactive = the rest
Procedure, shortened: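 Viability of tumor cells grown as complex spheroids with endothelial and stromal cells, exposed to drug combinations. Top concentration at or near clinical Cmax (else 10 microM), diluted in half-log increments.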

[1] = second compound 0.0316 µM, first compound 0.0316 µM
[2] = second compound 0.0316 µM, first compound 0.316 µM
[3] = second compound 0.1 µM, first compound 0.0316 µM
[4] = second compound 0.1 µM, first compound 0.316 µM
[5] = second compound 0.316 µM, first compound 0.0316 µM
[6] = second compound 0.316 µM, first compound 0.316 µM
[7] = second compound 1 µM, first compound 0.0316 µM
[8] = second compound 1 µM, first compound 0.316 µM
[9] = second compound 3.16 µM, first compound 0.0316 µM
[10] = second compound 3.16 µM, first compound 0.316 µM
[11] = second compound 10 µM, first compound 0.0316 µM
[12] = second compound 10 µM, first compound 0.316 µM
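Note: spheroids exposed to drugs for seven days.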
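Throughout, for viability, T/C: 100% = DMSO vehicle control viability.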

C=CCn1c(=O)c2cnc(Nc3ccc(N4CCN(C)CC4)cc3)nc2n1-c1cccc(C(C)(C)O)n1 + Cc1[nH]c2ccc(F)cc2c1-c1nc2c3cccnc3c3ncccc3c2[nH]1
< 5.00: pIC50 (second compound 0.0316 µM) | pIC50 (second compound 0.1 µM) | pIC50 (second compound 0.316 µM)
> 7.50: pIC50 (second compound 3.16 µM) | pIC50 (second compound 10 µM)
6.98: pIC50 (second compound 1 µM)
inactive: viability, T/C [1] 98.8% | viability, T/C (second compound 0.0316 µM, first compound 0.1 µM) 86.5% | viability, T/C [2] 71.4% | viability, T/C (second compound 0.0316 µM, first compound 1 µM) 67.8% | viability, T/C (second compound 0.0316 µM, first compound 3.16 µM) 66.8% | viability, T/C (second compound 0.0316 µM, first compound 10 µM) 66.6% | viability, T/C [3] 79.6% | viability, T/C (second compound 0.1 µM, first compound 0.1 µM) 79.5% | viability, T/C [4] 64.5% | viability, T/C (second compound 0.1 µM, first compound 1 µM) 48.3% | viability, T/C (second compound 0.1 µM, first compound 3.16 µM) 61% | viability, T/C (second compound 0.1 µM, first compound 10 µM) 52.7% | viability, T/C [5] 64% | viability, T/C (second compound 0.316 µM, first compound 0.1 µM) 58.4% | viability, T/C [6] 60.2% | viability, T/C (second compound 0.316 µM, first compound 1 µM) 41.1% | viability, T/C (second compound 0.316 µM, first compound 3.16 µM) 56.9% | viability, T/C (second compound 0.316 µM, first compound 10 µM) 61.4% | viability, T/C [7] 53.8% | viability, T/C (second compound 1 µM, first compound 0.1 µM) 53.9% | viability, T/C [8] 48% | viability, T/C (second compound 1 µM, first compound 1 µM) 36.4% | viability, T/C (second compound 1 µM, first compound 3.16 µM) 51.7% | viability, T/C (second compound 1 µM, first compound 10 µM) 50.4% | viability, T/C [9] 16.3% | viability, T/C (second compound 3.16 µM, first compound 0.1 µM) 14% | viability, T/C [10] 28.1% | viability, T/C (second compound 3.16 µM, first compound 1 µM) 18.1% | viability, T/C (second compound 3.16 µM, first compound 3.16 µM) 20.2% | viability, T/C (second compound 3.16 µM, first compound 10 µM) 23.9% | viability, T/C [11] 36.8% | viability, T/C (second compound 10 µM, first compound 0.1 µM) 35.8% | viability, T/C [12] 32.8% | viability, T/C (second compound 10 µM, first compound 1 µM) 26.7% | viability, T/C (second compound 10 µM, first compound 3.16 µM) 30.3% | viability, T/C (second compound 10 µM, first compound 10 µM) 35.4%

Cn1ncnc1[C@H]1c2n[nH]c(=O)c3cc(F)cc(c23)N[C@@H]1c1ccc(F)cc1 + Cc1cnc(CNC(=O)c2c(=O)c3ccc(N4CCCN(C)CC4)nc3n3c2sc2ccccc23)cn1
< 6.50: pIC50 (second compound 0.0316 µM) | pIC50 (second compound 0.1 µM) | pIC50 (second compound 0.316 µM) | pIC50 (second compound 1 µM) | pIC50 (second compound 3.16 µM) | pIC50 (second compound 10 µM)
inactive: viability, T/C (second compound 0.0316 µM, first compound 0.000999 µM) 94.8% | viability, T/C (second compound 0.0316 µM, first compound 0.00316 µM) 72.2% | viability, T/C (second compound 0.0316 µM, first compound 0.00999 µM) 79.9% | viability, T/C [1] 82.6% | viability, T/C (second compound 0.0316 µM, first compound 0.0999 µM) 82.9% | viability, T/C [2] 83.8% | viability, T/C (second compound 0.1 µM, first compound 0.000999 µM) 92.2% | viability, T/C (second compound 0.1 µM, first compound 0.00316 µM) 85.1% | viability, T/C (second compound 0.1 µM, first compound 0.00999 µM) 73% | viability, T/C [3] 78.3% | viability, T/C (second compound 0.1 µM, first compound 0.0999 µM) 89.2% | viability, T/C [4] 87.3% | viability, T/C (second compound 0.316 µM, first compound 0.000999 µM) 78.6% | viability, T/C (second compound 0.316 µM, first compound 0.00316 µM) 91.9% | viability, T/C (second compound 0.316 µM, first compound 0.00999 µM) 86.4% | viability, T/C [5] 82.8% | viability, T/C (second compound 0.316 µM, first compound 0.0999 µM) 80.8% | viability, T/C [6] 78.2% | viability, T/C (second compound 1 µM, first compound 0.000999 µM) 70.3% | viability, T/C (second compound 1 µM, first compound 0.00316 µM) 65.9% | viability, T/C (second compound 1 µM, first compound 0.00999 µM) 80.1% | viability, T/C [7] 74.4% | viability, T/C (second compound 1 µM, first compound 0.0999 µM) 88.5% | viability, T/C [8] 69.2% | viability, T/C (second compound 3.16 µM, first compound 0.000999 µM) 69.5% | viability, T/C (second compound 3.16 µM, first compound 0.00316 µM) 71.5% | viability, T/C (second compound 3.16 µM, first compound 0.00999 µM) 61.2% | viability, T/C [9] 67.5% | viability, T/C (second compound 3.16 µM, first compound 0.0999 µM) 70.7% | viability, T/C [10] 62.8% | viability, T/C (second compound 10 µM, first compound 0.000999 µM) 68.4% | viability, T/C (second compound 10 µM, first compound 0.00316 µM) 59.1% | viability, T/C (second compound 10 µM, first compound 0.00999 µM) 64.8% | viability, T/C [11] 71.8% | viability, T/C (second compound 10 µM, first compound 0.0999 µM) 66.2% | viability, T/C [12] 63.5%
